Key:
[1] = system: RUES2 hESC-CMs wild-type; assay: MEA dose-response of compounds on spontaneous electrical activity of hESC-CMs; type: cell-based, human; settings: for beating frequency / beat rate (effect in words) / spike amplitude (effect in words): RUES2 hESC-CMs wild-type on MEA, increasing doses vs DMSO control
From the text: FIGS. 6A-6F. […] Data shown as mean±SEM of 2 independent experiments each with 6 technical replicates (wells), and normalized on experimental baseline and expressed as % vs. DMSO control. Lines represents nonlinear regression of normalized response Y=100/(1+10^((LogIC50-X)*HillSlope))).
FIGS. 13A-13C. […] (FIGS. 13A, 13B, 13C) Dose-response curve of Mibefradil (ICaT, FIG. 13A), Zacopride (IK1 agonist, FIG. 13B) and Verapamil (L-type calcium channel inhibitor, FIG. 13C) on MEA system. Data shown as mean±SEM of 2 independent experiments normalized on baseline and expressed as % vs DMSO control (N=2, n=6). Lines represent nonlinear regression of normalized response Y=100/(1+10^((LogIC50-X)*HillSlope))).
The role of ion channels in automaticity has been so far largely studied in the context of the adult mouse sinoatrial node. Whether the same mechanisms also apply to hPSC-CMs and/or fetal human cardiomyocytes remains controversial. First, a variety of pharmacological compounds were tested on hPSC-CMs derived from the RUES2 human embryonic stem cells (hESCs), which were differentiated by sequential small molecule-based activation and inhibition of the WNT pathway. The inventors performed electrophysiological analyses using a multielectrode array (MEA) to record the effects of the different compounds on hPSC-CMs spontaneous electrical activity. […] Zacopride, reported to have agonistic effect on the Kir2.1 channel (encoded by KCNJ2) that mediates IKI currents, was also tested.
CytoView™ MEA 48 were coated with 0.17 mg/mL of Matrigel for 1 hour at 37° C. […] For spontaneous beat recording, spontaneous electrical activity was recorded for 5 min using Maestro™ Pro system at 37° C. with 5% CO2. Considering the irregular beat rate of the cell lines bearing KCNJ2 KI, the data are shown as total number of beats recorded per experiment, divided by the total time of recording (average beats/min). For pharmacological studies, the different compounds were diluted in DMSO and incubated directly on MEA plates for 5 min at 37° C. Effects on spontaneous beat rate was determined by recording for 15 min after drug incubation. Non-linear regression curve calculated as Y=100/(1+10^((LogIC50-X)*HillSlope))). […] Quantification of beat rate, spike amplitude and beat period irregularity was performed using Axis Navigator (beat detector threshold: 30-100 μV; Minimum beat period: 200-500 ms; Maximum beat period: 30s).

[2] = system: EA in pigs; settings: after hPSC-CM transplantation, reference [17]; cited from earlier work

Row | Structure (SMILES) | beating frequency / beat rate (effect in words) [1] | spike amplitude (effect in words) [1] | also measured
1 | COCC(=O)O[C@]1(CCN(C)CCCc2nc3ccccc3[nH]2)CCc2cc(F)ccc2[C@@H]1C(C)C [Mibefradil] |  |  | IC50 ([1]; Homo sapiens, MEA dose-response, nonlinear regression of normalized response, log value, concentration unit inferred): 20 nM
2 | N=C(N)SCCc1ccc(OCc2ccc([N+](=O)[O-])cc2)cc1 [KB-R3702] | dose-dependent reduction | dose-dependent reduction | 
3 | CC(C)(C)CCN1C[C@@H]2C(CNC(=O)c3cc(Cl)cc(Cl)c3)[C@@H]2C1 (stereo partly shown) [ML-218] | no effect on beating frequency until spike amplitudes were undetectable |  | LogIC50 ([1]; MEA dose-response, nonlinear regression of normalized response, log value, concentration unit not given): −4.8±0.1424; doses at which spike amplitude decreased ([1]; MEA, hESC-CMs): above 1 μM
4 | COc1cc2c(cc1OC)CC(=O)N(CCCN(C)C[C@H]1Cc3cc(OC)c(OC)cc31)CC2 [Ivabradine] | potently reduced | did not alter | spontaneous AP firing ([1]; very high doses of ivabradine (100 μM)): did not prevent; effect on EA in pigs [2]: reduces heart rate but does not prevent EA
5 | CCOc1ccc(Oc2ccc(OCc3cc(F)ccc3F)cc2)c(N)c1 [SEA0400] | dose-dependent reduction | dose-dependent reduction | 
6 | COc1ccc(CCN(C)CCCC(C#N)(c2ccc(OC)c(OC)c2)C(C)C)cc1OC (stereo not shown) [Verapamil] | progressively decrease | progressively decrease | 
7 | COc1cc(N)c(Cl)cc1C(=O)NC1CN2CCC1CC2 (stereo not shown) [Zacopride] | did not show measurable effects | did not show measurable effects | 
